Tests used:
[1] = system: ECHORC (Watergrass (Calif.)); test: Preemergence weed control under flooded paddy conditions; type: in vivo, Echinochloa oryzoides; conditions: rated 3-4 weeks after treatment
Summary of the method: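 Seeds or propagules sown in top 0.5 cm of silt loam soil, flooded 1.5 to 3 cm above surface throughout. Compound in 50/50 v/v aqueous/acetone pipetted into flood water at about 0.0313 to 0.500 kg/ha. Visual 0-9 rating versus control after three to four weeks in greenhouse.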

SETVI (Foxtail, Green) = test: Preemergence herbicidal evaluation; type: in vivo, Setaria viridis; conditions: rated 4-5 weeks after treatment; for SETVI rating: preemergence, 0-9 scale
Summary of the method: (§1)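 Seeds were planted in potting soil in cups, then sprayed preemergence with the test compound in aqueous acetone at about 0.0156 to 0.500 kg per hectare. Cups were kept under greenhouse conditions and visually rated 4–5 weeks after treatment on a 0–9 scale against an untreated control.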

[2] = system: ECHORC (Watergrass (Calif.)); test: Postemergence weed control under flooded paddy conditions; type: in vivo, Echinochloa oryzoides; conditions: postemergence weeds, rated 3 to 4 weeks after treatment
Summary of the method: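 Containers holding 3–5 cm weeds and rice at 1.5–2.5 leaves are flooded to 1.5–3 cm above soil. Compound in 50/50 v/v aqueous/acetone is then added directly to the water, about 0.0313–0.500 kg/ha. Plants are kept in the greenhouse and rated 0–9 visually at 3–4 weeks.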

[3] = system: GLXMAW (Soybean, Williams); test: Postemergence herbicidal evaluation; type: in vivo, Glycine max, (L.) Merr. cv Williams; conditions: for GLXMAW herbicidal rating: postemergence
Summary of the method: (§2)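 Seedlings grown about two weeks were sprayed at 40 psi with compound dispersed in 50/50 acetone/water plus 0.5% TWEEN 20, at about 0.0156 to 0.500 kg/ha. Plants were kept in the greenhouse and scored 4–5 weeks later on a 0–9 visual scale against untreated controls.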

ORYSAT (Rice, Tebonnet) = test: Preemergence herbicidal evaluation; type: in vivo, Oryza sativa, (L.) Tebonnet; conditions: rated 4-5 weeks after treatment; for ORYSAT rating: preemergence, 0-9 scale
Summary of the method: as §1

GALAP (Galium) [4] = test: Preemergence herbicidal evaluation; type: in vivo, Galium aparine; conditions: rated 4-5 weeks after treatment; for GALAP rating: preemergence, 0-9 scale
Summary of the method: as §1

CYPSE (Flatsedge) = test: Preemergence weed control under flooded paddy conditions; type: in vivo, Cyperus serotinus; conditions: rated 3-4 weeks after treatment
Summary of the method: (§3)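 Visual injury scored 0-9 against control three to four weeks post-treatment, greenhouse-grown. Application: acetone/water (50/50) solutions dosed directly into flood water (1.5-3 cm over silt loam, planted top 0.5 cm), roughly 0.0313 to 0.500 kg/ha active ingredient.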

AMBEL (Ragweed, Common) = test: Postemergence herbicidal evaluation; type: in vivo, Ambrosia artemisifolia; conditions: for AMBEL herbicidal rating: postemergence
Summary of the method: as §2

CASOB (Sicklepod) = test: Postemergence herbicidal evaluation; type: in vivo, Cassia obtusifolia; conditions: for CASOB herbicidal rating: postemergence
Summary of the method: as §2

GALAP (Galium) [5] = test: Postemergence herbicidal evaluation; type: in vivo, Galium aparine; conditions: for GALAP herbicidal rating: postemergence
Summary of the method: as §2

MOOVA (Monochoria) = test: Preemergence weed control under flooded paddy conditions; type: in vivo, Monochoria vaginalis; conditions: rated 3-4 weeks after treatment
Summary of the method: as §3

[6] = system: TRZAWR (Wheat, Winter, cv Riband); test: Postemergence herbicidal evaluation; type: in vivo, Triticum aestivum; conditions: for TRZAWR herbicidal rating: postemergence
Summary of the method: as §2

[7] = system: SAGPY (Arrowhead (Pygmaea)); test: Preemergence weed control under flooded paddy conditions; type: in vivo, Sagittaria pygmaea; conditions: rated 3-4 weeks after treatment
Summary of the method: as §3

CCOC(=O)CN1C(=O)C(CC(=O)NO)S/C1=N/c1cc(-n2c(=O)cc(C(F)(F)F)n(C)c2=O)c(F)cc1Cl (centres unmarked) [Compound 98, Ethyl 2-{{2-chloro-5-[3,6-dihydro-3-methyl-2,6-dioxo-4-(trifluoromethyl)-1(2H)-pyrimidinyl]-4-fluorophenyl}imino}-5-[(hydroxycarbamoyl)methyl]-4-oxo-3-thiazolidineacetate]
ECHORC herbicidal effect rating ([1]; 0.0313 kg/ha): 0.0 | ECHORC herbicidal effect rating ([1]; 0.0625 kg/ha): 0.0 | ECHORC herbicidal effect rating ([1]; 0.1250 kg/ha): 1.0 | ECHORC herbicidal effect rating ([1]; 0.2500 kg/ha): 3.0 | SETVI rating (SETVI (Foxtail, Green); 0.0156 kg/ha): 0.0 | SETVI rating (SETVI (Foxtail, Green); 0.0313 kg/ha): 1.0 | SETVI rating (SETVI (Foxtail, Green); 0.0625 kg/ha): 0.0 | SETVI rating (SETVI (Foxtail, Green); 0.1250 kg/ha): 4.0 | SETVI rating (SETVI (Foxtail, Green); 0.2500 kg/ha): 3.0 | SETVI rating (SETVI (Foxtail, Green); 0.5000 kg/ha): 7.0 | Herbicidal rating ECHORC ([2]; Rate 0.0313 kg/ha): 0.0 | Herbicidal rating ECHORC ([2]; Rate 0.0625 kg/ha): 0.0 | Herbicidal rating ECHORC ([2]; Rate 0.1250 kg/ha): 1.0 | Herbicidal rating ECHORC ([2]; Rate 0.2500 kg/ha): 3.0 | GLXMAW herbicidal rating ([3]; rate 0.0156 kg/ha): 4.5 | GLXMAW herbicidal rating ([3]; rate 0.0313 kg/ha): 4.5 | GLXMAW herbicidal rating ([3]; rate 0.0625 kg/ha): 5.5 | GLXMAW herbicidal rating ([3]; rate 0.1250 kg/ha): 5.5 | ORYSAT rating (ORYSAT (Rice, Tebonnet); 0.0156 kg/ha): 0.0 | ORYSAT rating (ORYSAT (Rice, Tebonnet); 0.0313 kg/ha): 0.0 | ORYSAT rating (ORYSAT (Rice, Tebonnet); 0.0625 kg/ha): 0.0 | ORYSAT rating (ORYSAT (Rice, Tebonnet); 0.1250 kg/ha): 0.0 | ORYSAT rating (ORYSAT (Rice, Tebonnet); 0.2500 kg/ha): 1.0 | ORYSAT rating (ORYSAT (Rice, Tebonnet); 0.5000 kg/ha): 4.0 | GALAP rating (GALAP (Galium) [4]; 0.0156 kg/ha): 1.0 | GALAP rating (GALAP (Galium) [4]; 0.0313 kg/ha): 0.0 | GALAP rating (GALAP (Galium) [4]; 0.0625 kg/ha): 6.0 | GALAP rating (GALAP (Galium) [4]; 0.2500 kg/ha): 7.0 | GALAP rating (GALAP (Galium) [4]; 0.5000 kg/ha): 7.0 | CYPSE herbicidal effect rating (CYPSE (Flatsedge); 0.0313 kg/ha): 2.0 | CYPSE herbicidal effect rating (CYPSE (Flatsedge); 0.0625 kg/ha): 3.0 | CYPSE herbicidal effect rating (CYPSE (Flatsedge); 0.1250 kg/ha): 4.0 | CYPSE herbicidal effect rating (CYPSE (Flatsedge); 0.2500 kg/ha): 4.0 | AMBEL herbicidal rating (AMBEL (Ragweed, Common); rate 0.0156 kg/ha): 3.0 | AMBEL herbicidal rating (AMBEL (Ragweed, Common); rate 0.0313 kg/ha): 3.0 | AMBEL herbicidal rating (AMBEL (Ragweed, Common); rate 0.0625 kg/ha): 4.0 | AMBEL herbicidal rating (AMBEL (Ragweed, Common); rate 0.1250 kg/ha): 9.0 | CASOB herbicidal rating (CASOB (Sicklepod); rate 0.0156 kg/ha): 0.0 | CASOB herbicidal rating (CASOB (Sicklepod); rate 0.0313 kg/ha): 0.0 | CASOB herbicidal rating (CASOB (Sicklepod); rate 0.0625 kg/ha): 0.0 | CASOB herbicidal rating (CASOB (Sicklepod); rate 0.1250 kg/ha): 1.0 | GALAP herbicidal rating (GALAP (Galium) [5]; rate 0.0156 kg/ha): 0.0 | GALAP herbicidal rating (GALAP (Galium) [5]; rate 0.0313 kg/ha): 0.0 | GALAP herbicidal rating (GALAP (Galium) [5]; rate 0.0625 kg/ha): 0.0 | GALAP herbicidal rating (GALAP (Galium) [5]; rate 0.1250 kg/ha): 1.0 | MOOVA herbicidal effect rating (MOOVA (Monochoria); 0.0313 kg/ha): 9.0 | MOOVA herbicidal effect rating (MOOVA (Monochoria); 0.0625 kg/ha): 9.0 | MOOVA herbicidal effect rating (MOOVA (Monochoria); 0.1250 kg/ha): 9.0 | MOOVA herbicidal effect rating (MOOVA (Monochoria); 0.2500 kg/ha): 9.0 | TRZAWR herbicidal rating ([6]; rate 0.0156 kg/ha): 2.5 | TRZAWR herbicidal rating ([6]; rate 0.0313 kg/ha): 2.5 | TRZAWR herbicidal rating ([6]; rate 0.0625 kg/ha): 3.0 | TRZAWR herbicidal rating ([6]; rate 0.1250 kg/ha): 3.0

COCCCN1C(=O)CSC1=Nc1cc(-n2c(=O)cc(C(F)(F)F)n(C)c2=O)c(F)cc1Cl [Compound 172, 3-{4-Chloro-2-fluoro-5-{[3-(3-methoxypropyl)-4-oxo-2-thiazolidinylidene]amino}phenyl}-1-methyl-6-(trifluoromethyl)-2,4(1H, 3H)-pyrimidinedione]
herbicidal effect rating, ECHORC ([1]; 0.0313 kg/ha): 6.0 | herbicidal effect rating, ECHORC ([1]; 0.0625 kg/ha): 9.0 | herbicidal effect rating, ECHORC ([1]; 0.1250 kg/ha): 9.0 | herbicidal effect rating, ECHORC ([1]; 0.2500 kg/ha): 9.0 | herbicidal effect rating, SAGPY ([7]; 0.0313 kg/ha): 6.0 | herbicidal effect rating, SAGPY ([7]; 0.0625 kg/ha): 6.0 | herbicidal effect rating, SAGPY ([7]; 0.1250 kg/ha): 9.0 | herbicidal effect rating, SAGPY ([7]; 0.2500 kg/ha): 9.0 | Preemergence herbicidal rating SETVI (SETVI (Foxtail, Green); 0.0156 kg/ha): 5.0 | Preemergence herbicidal rating SETVI (SETVI (Foxtail, Green); 0.0313 kg/ha): 7.0 | Preemergence herbicidal rating SETVI (SETVI (Foxtail, Green); 0.0625 kg/ha): 9.0 | Preemergence herbicidal rating SETVI (SETVI (Foxtail, Green); 0.1250 kg/ha): 9.0 | Preemergence herbicidal rating SETVI (SETVI (Foxtail, Green); 0.2500 kg/ha): 9.0 | Postemergence herbicidal rating GLXMAW ([3]; Rate 0.0313 kg/ha): 6.5 | Postemergence herbicidal rating GLXMAW ([3]; Rate 0.0625 kg/ha): 7.0 | Postemergence herbicidal rating GLXMAW ([3]; rate 0.0156 kg/ha): 6.0 | Preemergence herbicidal rating ORYSAT (ORYSAT (Rice, Tebonnet); 0.0156 kg/ha): 2.0 | Preemergence herbicidal rating ORYSAT (ORYSAT (Rice, Tebonnet); 0.0313 kg/ha): 5.0 | Preemergence herbicidal rating ORYSAT (ORYSAT (Rice, Tebonnet); 0.0625 kg/ha): 7.0 | Preemergence herbicidal rating ORYSAT (ORYSAT (Rice, Tebonnet); 0.1250 kg/ha): 7.0 | Preemergence herbicidal rating ORYSAT (ORYSAT (Rice, Tebonnet); 0.2500 kg/ha): 8.0 | Preemergence herbicidal rating GALAP (GALAP (Galium) [4]; 0.0156 kg/ha): 0.0 | Preemergence herbicidal rating GALAP (GALAP (Galium) [4]; 0.0313 kg/ha): 0.0 | Preemergence herbicidal rating GALAP (GALAP (Galium) [4]; 0.0625 kg/ha): 5.0 | Preemergence herbicidal rating GALAP (GALAP (Galium) [4]; 0.1250 kg/ha): 7.0 | Preemergence herbicidal rating GALAP (GALAP (Galium) [4]; 0.2500 kg/ha): 9.0 | herbicidal effect rating, CYPSE (CYPSE (Flatsedge); 0.0625 kg/ha): 6.0 | herbicidal effect rating, CYPSE (CYPSE (Flatsedge); 0.1250 kg/ha): 9.0 | herbicidal effect rating, CYPSE (CYPSE (Flatsedge); 0.2500 kg/ha): 9.0 | Postemergence herbicidal rating AMBEL (AMBEL (Ragweed, Common); Rate 0.0313 kg/ha): 9.0 | Postemergence herbicidal rating AMBEL (AMBEL (Ragweed, Common); Rate 0.0625 kg/ha): 9.0 | Postemergence herbicidal rating AMBEL (AMBEL (Ragweed, Common); rate 0.0156 kg/ha): 6.0 | Postemergence herbicidal rating CASOB (CASOB (Sicklepod); Rate 0.0313 kg/ha): 2.0 | Postemergence herbicidal rating CASOB (CASOB (Sicklepod); Rate 0.0625 kg/ha): 2.0 | Postemergence herbicidal rating CASOB (CASOB (Sicklepod); rate 0.0156 kg/ha): 1.0 | Postemergence herbicidal rating GALAP (GALAP (Galium) [5]; Rate 0.0313 kg/ha): 4.0 | Postemergence herbicidal rating GALAP (GALAP (Galium) [5]; Rate 0.0625 kg/ha): 7.0 | Postemergence herbicidal rating GALAP (GALAP (Galium) [5]; rate 0.0156 kg/ha): 3.0 | herbicidal effect rating, MOOVA (MOOVA (Monochoria); 0.0313 kg/ha): 9.0 | herbicidal effect rating, MOOVA (MOOVA (Monochoria); 0.0625 kg/ha): 9.0 | herbicidal effect rating, MOOVA (MOOVA (Monochoria); 0.1250 kg/ha): 9.0 | herbicidal effect rating, MOOVA (MOOVA (Monochoria); 0.2500 kg/ha): 9.0 | Postemergence herbicidal rating TRZAWR ([6]; Rate 0.0313 kg/ha): 4.5 | Postemergence herbicidal rating TRZAWR ([6]; Rate 0.0625 kg/ha): 4.0 | Postemergence herbicidal rating TRZAWR ([6]; rate 0.0156 kg/ha): 4.0
